Measured values published in patent US20170326100A1, “COMPOSITION FOR ACTIVATING LONGEVITY GENE” (AMOREPACIFIC CORPORATION, priority 2014, published 2017).
Entries after “also recorded” stand apart in the source; their conditions may differ.

Columns and labels:
ERCC8 mRNA [1] = experiment: ERCC8 activation: relative expression of ERCC8 mRNA in keratinocytes (TaqMan RT-PCR); format: cell-based, human; conditions: keratinocytes (NHK), 10 ppm, 24 hours, control = 1.0
Method: (§1) Experiment was conducted using normal human keratinocytes (NHK) and normal human fibroblasts (NHF) to investigate the effect of a methylated catechin. Specifically, 2×10^5 NHFs (normal human fibroblasts) purchased from Lonza (Allendale, N.J., USA) were cultured on a 60-mm dish at 37° C. for 24 hours using DMEM. The medium was discarded and the cells were transferred to a new tissue culture flask. Also, NHEKs (normal human epidermal keratinocytes, corresponding to NHK) purchased from Lonza (Allendale, N.J., USA) were cultured using a keratinocyte growth medium (KGM-GOLD, Lonza, Allendale, N.J., USA). The cells were detached with 0.025% trypsin and transferred to a new tissue culture flask after subculturing.
(§2) Specifically, after treating the keratinocytes (NHK) and the fibroblasts (NHF) with each of retinol, green tea EGCG and green tea EGCG″3Me at 10 ppm, followed by incubation at 37° C. for 24 hours, total RNA was isolated from the cells and the relative expression of ERCC8 mRNA was compared.
(§3) The total RNA was isolated using TRIzol™ (Invitrogen, Carlsbad, Calif., USA) according to the manufacturer's protocol. RNA concentration was measured spectrophotometrically and RNA integrity was measured using BioAnalyzer 2100 (Agilent Technologies, Santa Clara, Calif., USA). 4 μg of RNA was reverse transcribed to cDNA using SuperScript®III reverse transcriptase (Invitrogen, Carlsbad, Calif., USA). The cDNA was stored at −70° C. The expression level of the target gene was measured by quantitative real-time TaqMan RT-PCR (7500Fast, Applied Biosystems, Foster City, Calif., USA). The cycle condition was 10 minutes at 95° C., 50 cycles of […] at 95° C. and 1 minute at 60° C.

Klotho mRNA [2] = experiment: Klotho activation: relative expression of Klotho mRNA in keratinocytes (TaqMan RT-PCR); format: cell-based, human; conditions: keratinocytes (NHK), 24 hours, control = 1.0
Method: as §1
as §2, with “of retinol (10 ppm),” for “of retinol,”, “EGCG (1 and 10 ppm)” for “EGCG”, “EGCG″3Me (1 and” for “EGCG″3Me at”, “10 ppm),” for “10 ppm,”, “of Klotho” for “of ERCC8”
as §3

ERCC8 mRNA [3] = experiment: ERCC8 activation: relative expression of ERCC8 mRNA in fibroblasts (TaqMan RT-PCR); format: cell-based, human; conditions: fibroblasts (NHF), 10 ppm, 24 hours, control = 1.0
Method: as §1, §2, §3

XPD mRNA [4] = experiment: XPD activation: relative expression of XPD mRNA in keratinocytes (TaqMan RT-PCR); format: cell-based, human; conditions: keratinocytes (NHK), 10 ppm, 37° C. 24 hours, control = 1.0
Method: as §1
(§4) Specifically, after treating the keratinocytes (NHK) and the fibroblasts (NHF) with each of retinol, green tea EGCG and green tea EGCG″3Me at 10 ppm, followed by incubation at 37° C. for 24 hours, total RNA was isolated from the cells and the relative expression of XPD mRNA was compared.
as §3

Fox03 mRNA [5] = experiment: FoxO3 activation: relative expression of Fox03 mRNA in fibroblasts (TaqMan RT-PCR); format: cell-based, human; conditions: fibroblasts (NHF), 10 ppm, 24 hours, control = 1.0
Method: as §1
(§5) Specifically, after treating the keratinocytes (NHK) and the fibroblasts (NHF) with each of retinol, green tea EGCG and green tea EGCG″3Me at 10 ppm, followed by incubation at 37° C. for 24 hours, total RNA was isolated from the cells and the relative expression of Fox03 mRNA was compared.
as §3

Klotho mRNA [6] = experiment: Klotho activation: relative expression of Klotho mRNA in fibroblasts (TaqMan RT-PCR); format: cell-based, human; conditions: fibroblasts (NHF), 24 hours, control = 1.0
Method: as §1
as §2, with “of retinol (10 ppm),” for “of retinol,”, “EGCG (1 and 10 ppm)” for “EGCG”, “EGCG″3Me (1 and” for “EGCG″3Me at”, “10 ppm),” for “10 ppm,”, “of Klotho” for “of ERCC8”
as §3

Fox03 mRNA [7] = experiment: FoxO3 activation: relative expression of Fox03 mRNA in keratinocytes (TaqMan RT-PCR); format: cell-based, human; conditions: keratinocytes (NHK), 10 ppm, 24 hours, control = 1.0
Method: as §1, §5, §3

Sirt-1 mRNA [8] = experiment: Sirt-1 activation: relative expression of Sirt-1 mRNA in keratinocytes (TaqMan RT-PCR); format: cell-based, human; conditions: keratinocytes (NHK), 10 ppm, 24 hours, control = 1.0
Method: as §1
(§6) Specifically, after treating the keratinocytes (NHK) and the fibroblasts (NHF) with each of retinol, green tea EGCG and green tea EGCG″3Me at 10 ppm, followed by incubation at 37° C. for 24 hours, total RNA was isolated from the cells and the relative expression of Sirt-1 mRNA was compared.
as §3

XPD mRNA [9] = experiment: XPD activation: relative expression of XPD mRNA in fibroblasts (TaqMan RT-PCR); format: cell-based, human; conditions: fibroblasts (NHF), 10 ppm, 37° C. 24 hours, control = 1.0
Method: as §1, §4, §3

Sirt-1 mRNA [10] = experiment: Sirt-1 activation: relative expression of Sirt-1 mRNA in fibroblasts (TaqMan RT-PCR); format: cell-based, human; conditions: fibroblasts (NHF), 10 ppm, 24 hours, control = 1.0
Method: as §1, §6, §3

[11] = test system: normal human epidermal keratinocytes (NHEKs); experiment: Evaluation of cellular differentiation of keratinocytes; format: cell-based; conditions: various concentrations, 48 hours, FIG. 1
Method: In order to investigate the effect of the methylated catechin on the differentiation of keratinocytes, normal human epidermal keratinocytes (NHEKs) were treated with EGCG″3Me and EGCG at various concentrations for 48 hours.

O=C(O[C@@H]1Cc2c(O)cc(O)cc2O[C@@H]1c1cc(O)c(O)c(O)c1)c1cc(O)c(O)c(O)c1 [Green tea EGCG, epigallocatechin gallate]
relative expression of ERCC8 mRNA (ERCC8 mRNA [1]): 1.9
relative expression of Klotho mRNA (Klotho mRNA [2]; 1 ppm): 2.5
relative expression of Klotho mRNA (Klotho mRNA [2]; 10 ppm): 10.2
relative expression of ERCC8 mRNA (ERCC8 mRNA [3]): 2.3
relative expression of XPD mRNA (XPD mRNA [4]): 9.2
relative expression of Fox03 mRNA (Fox03 mRNA [5]): 2.1
relative expression of Klotho mRNA (Klotho mRNA [6]; 1 ppm): 1.2
relative expression of Klotho mRNA (Klotho mRNA [6]; 10 ppm): 1.8
relative expression of Fox03 mRNA (Fox03 mRNA [7]): 1.4
relative expression of Sirt-1 mRNA (Sirt-1 mRNA [8]): 8.2
relative expression of XPD mRNA (XPD mRNA [9]): 2.8
relative expression of Sirt-1 mRNA (Sirt-1 mRNA [10]): 2.0

CC1=C(/C=C/C(C)=C/C=C/C(C)=C/CO)C(C)(C)CCC1 [Retinol]
relative expression of ERCC8 mRNA (ERCC8 mRNA [1]): 1.2
relative expression of Klotho mRNA (Klotho mRNA [2]; 10 ppm): 9.8
relative expression of ERCC8 mRNA (ERCC8 mRNA [3]): 1.0
relative expression of XPD mRNA (XPD mRNA [4]): 10.1
relative expression of Fox03 mRNA (Fox03 mRNA [5]): 1.4
relative expression of Klotho mRNA (Klotho mRNA [6]; 10 ppm): 2.2
relative expression of Fox03 mRNA (Fox03 mRNA [7]): 1.1
relative expression of Sirt-1 mRNA (Sirt-1 mRNA [8]): 7.9
relative expression of XPD mRNA (XPD mRNA [9]): 2.4
relative expression of Sirt-1 mRNA (Sirt-1 mRNA [10]): 1.9

epigallocatechin-3-O-(3-O-methyl)gallate [Green tea EGCG3″Me]
relative expression of ERCC8 mRNA (ERCC8 mRNA [1]): 4.3
relative expression of Klotho mRNA (Klotho mRNA [2]; 1 ppm): 4.2
relative expression of Klotho mRNA (Klotho mRNA [2]; 10 ppm): 10.5
relative expression of ERCC8 mRNA (ERCC8 mRNA [3]): 5.1
relative expression of XPD mRNA (XPD mRNA [4]): 21.4
relative expression of Fox03 mRNA (Fox03 mRNA [5]): 5.3
relative expression of Klotho mRNA (Klotho mRNA [6]; 1 ppm): 1.7
relative expression of Klotho mRNA (Klotho mRNA [6]; 10 ppm): 2.1
relative expression of Fox03 mRNA (Fox03 mRNA [7]): 3.2
relative expression of Sirt-1 mRNA (Sirt-1 mRNA [8]): 17.1
relative expression of XPD mRNA (XPD mRNA [9]): 6.9
relative expression of Sirt-1 mRNA (Sirt-1 mRNA [10]): 4.3
differentiation of keratinocytes [11]: promoted the differentiation of the keratinocytes in a concentration-dependent manner; also recorded: superior differentiation of the keratinocytes at low concentration as compared to EGCG
